This test has as its target T1, AR (Homo sapiens, UniProt P10275).
T1 construct: endogenous in cells; host or cells: VCaP cells
T1 sequence (P10275 1-920): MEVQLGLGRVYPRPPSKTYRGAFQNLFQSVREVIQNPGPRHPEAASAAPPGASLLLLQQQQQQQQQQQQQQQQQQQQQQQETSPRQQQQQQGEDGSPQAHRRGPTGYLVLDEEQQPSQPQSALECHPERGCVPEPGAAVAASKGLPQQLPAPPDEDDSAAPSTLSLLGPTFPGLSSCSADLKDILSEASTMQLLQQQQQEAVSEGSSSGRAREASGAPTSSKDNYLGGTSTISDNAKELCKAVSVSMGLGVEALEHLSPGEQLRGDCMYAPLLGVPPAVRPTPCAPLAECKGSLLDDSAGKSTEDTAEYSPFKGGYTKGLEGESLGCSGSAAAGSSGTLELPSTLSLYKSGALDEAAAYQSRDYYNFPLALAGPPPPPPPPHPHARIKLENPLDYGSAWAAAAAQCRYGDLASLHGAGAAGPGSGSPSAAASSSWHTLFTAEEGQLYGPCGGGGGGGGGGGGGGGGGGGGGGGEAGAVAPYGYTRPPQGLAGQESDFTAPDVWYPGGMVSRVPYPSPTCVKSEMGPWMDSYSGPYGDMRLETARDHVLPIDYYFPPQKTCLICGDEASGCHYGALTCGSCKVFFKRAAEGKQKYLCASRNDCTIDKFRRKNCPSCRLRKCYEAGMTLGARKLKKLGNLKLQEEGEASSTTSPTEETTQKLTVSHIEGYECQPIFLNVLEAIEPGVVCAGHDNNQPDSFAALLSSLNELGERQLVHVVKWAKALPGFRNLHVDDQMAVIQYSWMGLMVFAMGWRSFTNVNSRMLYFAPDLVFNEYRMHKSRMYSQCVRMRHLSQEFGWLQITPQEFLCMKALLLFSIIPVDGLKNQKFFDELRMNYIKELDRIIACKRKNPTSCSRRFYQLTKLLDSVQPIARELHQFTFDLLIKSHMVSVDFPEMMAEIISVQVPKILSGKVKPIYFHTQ
Description: VCAP AR Degradation Assay. In kind it is cell-based. The settings on record: for Y (AR degradation efficiency, % of DMSO control): class symbols *; for DC50: class symbols A-C, read-out: DC50. The method, boiled down: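 VCaP cells treated 24 h at 37 °C with a 10-point 1:3 series (top 5 μM final; 0.1% DMSO control). Lysate AR measured by sandwich ELISA, normalized to DMSO as percent of control; DC50, EC50 and lowest AR level (Y) from four-parameter logistic fit.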

Each structure is given as a SMILES string.

What is called DC50 is the midpoint of the concentration-degradation curve. Turning to `CCc1cc(N2C(=S)N(c3ccc(C#N)c(C(F)(F)F)c3)C(=O)C2(C)C)ccc1CCCN1CCN(CC(=O)Nc2cc(Cl)cc(NC3CCC(=O)NC3=O)c2)CC1` (stereo not shown) [Example 89, N-(3-chloro-5-(2,6-dioxopiperidin-3-ylamino)phenyl)-2-(4-(3-(4-(3-(4-cyano-3-(trifluoromethyl)phenyl)-5,5-dimethyl-4-oxo-2-thioxoimidazolidin-1-yl)-2-ethylphenyl)propyl)piperazin-1-yl)acetamide], the “Y (AR degradation efficiency, % of DMSO control)” value is “* (0<Y<=25%)” and the DC50 was under 100 nM.

Regarding `CCc1cc(N2C(=S)N(c3ccc(C#N)c(C(F)(F)F)c3)C(=O)C2(C)C)ccc1OCCN1CCN(CC(=O)Nc2cc(F)cc(NC3CCC(=O)NC3=O)c2)[C@H](C)C1` (stereo partly drawn) [Example 90, 2-((R)-4-(2-(4-(3-(4-cyano-3-(trifluoromethyl)phenyl)-5,5-dimethyl-4-oxo-2-thioxoimidazolidin-1-yl)-2-ethylphenoxy)ethyl)-2-methylpiperazin-1-yl)-N-(3-(2,6-dioxopiperidin-3-ylamino)-5-fluorophenyl)acetamide], the “Y (AR degradation efficiency, % of DMSO control)” value was “* (0<Y<=25%)” and the DC50 is under 100 nM.

For `CC1(C)C(=O)N(c2cnc(C#N)c(C(F)(F)F)c2)C(=S)N1c1ccc(OCCN2CCN(CC(=O)Nc3cc(Cl)cc(NC4CCC(=O)NC4=O)c3)CC2)c(CO)c1` (stereo not shown) [Example 91, N-(3-chloro-5-(2,6-dioxopiperidin-3-ylamino)phenyl)-2-(4-(2-(4-(3-(6-cyano-5-(trifluoromethyl)pyridin-3-yl)-5,5-dimethyl-4-oxo-2-thioxoimidazolidin-1-yl)-2-(hydroxymethyl)phenoxy)ethyl)piperazin-1-yl)acetamide], the “Y (AR degradation efficiency, % of DMSO control)” value is recorded as “*** (35%<Y<50%)” and the DC50 is under 100 nM.

`CC(O)c1cc(N2C(=S)N(c3cnc(C#N)c(C(F)(F)F)c3)C(=O)C2(C)C)ccc1OCCN1CCN(CC(=O)Nc2cc(Cl)cc(NC3CCC(=O)NC3=O)c2)CC1` (stereo not shown) [Example 92, N-(3-chloro-5-(2,6-dioxopiperidin-3-ylamino)phenyl)-2-(4-(2-(4-(3-(6-cyano-5-(trifluoromethyl)pyridin-3-yl)-5,5-dimethyl-4-oxo-2-thioxoimidazolidin-1-yl)-2-(1-hydroxyethyl)phenoxy)ethyl)piperazin-1-yl)acetamide]: the “Y (AR degradation efficiency, % of DMSO control)” value is “*** (35%<Y<50%)” and the DC50 was 100 to 500 nM.

`CC(C)c1cc(N2C(=S)N(c3cnc(C#N)c(C(F)(F)F)c3)C(=O)C2(C)C)ccc1OCCN1CCN(CC(=O)Nc2cc(Cl)cc(NC3CCC(=O)NC3=O)c2)CC1` (stereo not shown) [Example 93, N-(3-chloro-5-(2,6-dioxopiperidin-3-ylamino)phenyl)-2-(4-(2-(4-(3-(6-cyano-5-(trifluoromethyl)pyridin-3-yl)-5,5-dimethyl-4-oxo-2-thioxoimidazolidin-1-yl)-2-isopropylphenoxy)ethyl)piperazin-1-yl)acetamide]: the “Y (AR degradation efficiency, % of DMSO control)” value is “* (0<Y<=25%)” and the DC50 is under 100 nM.

For `CC(C)c1cc(N2C(=S)N(c3ccc(C#N)c(C(F)(F)F)c3)C(=O)C2(C)C)ccc1OCCN1CCN(CC(=O)Nc2cc(Cl)cc(NC3CCC(=O)NC3=O)c2)CC1` (stereo not shown) [Example 94, N-(3-chloro-5-(2,6-dioxopiperidin-3-ylamino)phenyl)-2-(4-(2-(4-(3-(4-cyano-3-(trifluoromethyl)phenyl)-5,5-dimethyl-4-oxo-2-thioxoimidazolidin-1-yl)-2-isopropylphenoxy)ethyl)piperazin-1-yl)acetamide], the “Y (AR degradation efficiency, % of DMSO control)” value is “** (25%<Y<=35%)” and the 50% degradation concentration (DC50) lay in the range of 100 to 500 nM.

As to `CCc1cc(N2C(=S)N(c3ccc(C#N)c(C(F)(F)F)c3)C(=O)C2(C)C)ccc1OCCN1CCN(CC(=O)Nc2cccc(NC3CCC(=O)NC3=O)c2)C(C)(C)C1` (stereo not shown) [Example 95, 2-(4-(2-(4-(3-(4-cyano-3-(trifluoromethyl)phenyl)-5,5-dimethyl-4-oxo-2-thioxoimidazolidin-1-yl)-2-ethylphenoxy)ethyl)-2,2-dimethylpiperazin-1-yl)-N-(3-(2,6-dioxopiperidin-3-ylamino)phenyl)acetamide], the “Y (AR degradation efficiency, % of DMSO control)” value is “* (0<Y<=25%)” and the DC50 is under 100 nM.

Turning to `Cc1c(N2C(=O)C(C)(C)N(c3ccc(OCCN4CCN(CC(=O)Nc5cccc(NC6CCC(=O)NC6=O)c5)CC4)c(F)c3)C2=S)ccc(C#N)c1C(F)(F)F` (stereo not shown) [Example 96, 2-(4-(2-(4-(3-(4-cyano-2-methyl-3-(trifluoromethyl)phenyl)-5,5-dimethyl-4-oxo-2-thioxoimidazolidin-1-yl)-2-fluorophenoxy)ethyl)piperazin-1-yl)-N-(3-(2,6-dioxopiperidin-3-ylamino)phenyl)acetamide], the “Y (AR degradation efficiency, % of DMSO control)” value is “*** (35%<Y<50%)” and the DC50 is under 100 nM.

For `CCc1cc(N2C(=S)N(c3cnc(C#N)c(C(F)(F)F)c3)C(=O)C2(C)C)ccc1OCCN1CCN(CC(=O)Nc2cccc(NC3CCC(=O)NC3=O)c2)C(C)(C)C1` (stereo not shown) [Example 97, 2-(4-(2-(4-(3-(6-cyano-5-(trifluoromethyl)pyridin-3-yl)-5,5-dimethyl-4-oxo-2-thioxoimidazolidin-1-yl)-2-ethylphenoxy)ethyl)-2,2-dimethylpiperazin-1-yl)-N-(3-(2,6-dioxopiperidin-3-ylamino)phenyl)acetamide], the “Y (AR degradation efficiency, % of DMSO control)” value is “* (0<Y<=25%)” and the DC50 was under 100 nM.

For the compound `CCc1cc(N2C(=S)N(c3ccc(C#N)c(C(F)(F)F)c3)C(=O)C2(C)C)ccc1OCCN1CCN(CC(=O)Nc2cccc(NC3CCC(=O)NC3=O)c2)C2(CC2)C1` (stereo not shown) [Example 98, 2-(7-(2-(4-(3-(4-cyano-3-(trifluoromethyl)phenyl)-5,5-dimethyl-4-oxo-2-thioxoimidazolidin-1-yl)-2-ethylphenoxy)ethyl)-4,7-diazaspiro[2.5]octan-4-yl)-N-(3-(2,6-dioxopiperidin-3-ylamino)phenyl)acetamide], the “Y (AR degradation efficiency, % of DMSO control)” value is “** (25%<Y<=35%)” and the DC50 was under 100 nM.

For the compound `CCc1cc(N2C(=S)N(c3cnc(C#N)c(C(F)(F)F)c3)C(=O)C2(C)C)ccc1OCCN1CCN(CC(=O)Nc2cccc(NC3CCC(=O)NC3=O)c2)C2(CC2)C1` (stereo not shown) [Example 99, 2-(7-(2-(4-(3-(6-cyano-5-(trifluoromethyl)pyridin-3-yl)-5,5-dimethyl-4-oxo-2-thioxoimidazolidin-1-yl)-2-ethylphenoxy)ethyl)-4,7-diazaspiro[2.5]octan-4-yl)-N-(3-(2,6-dioxopiperidin-3-ylamino)phenyl)acetamide], the “Y (AR degradation efficiency, % of DMSO control)” value is “* (0<Y<=25%)” and the DC50 was under 100 nM.

Take `CCc1cc(N2C(=S)N(c3cnc(C#N)c(C(F)(F)F)c3)C(=O)C2(C)C)ccc1OCCN1CCN(CC(=O)Nc2cc(NC3CCC(=O)NC3=O)cc(F)c2F)[C@H](C)C1` (stereo partly drawn) [Example 100, 2-((R)-4-(2-(4-(3-(6-cyano-5-(trifluoromethyl)pyridin-3-yl)-5,5-dimethyl-4-oxo-2-thioxoimidazolidin-1-yl)-2-ethylphenoxy)ethyl)-2-methylpiperazin-1-yl)-N-(5-(2,6-dioxopiperidin-3-ylamino)-2,3-difluorophenyl)acetamide]: the “Y (AR degradation efficiency, % of DMSO control)” value was “* (0<Y<=25%)” and the DC50 was under 100 nM.

`CCc1cc(N2C(=S)N(c3ccc(C#N)c(C(F)(F)F)c3)C(=O)C2(C)C)ccc1OCCN1CCN(CC(=O)Nc2cc(Cl)cc(NC3CCC(=O)NC3=O)c2)C2(CC2)C1` (stereo not shown) [Example 101, N-(3-chloro-5-(2,6-dioxopiperidin-3-ylamino)phenyl)-2-(7-(2-(4-(3-(4-cyano-3-(trifluoromethyl)phenyl)-5,5-dimethyl-4-oxo-2-thioxoimidazolidin-1-yl)-2-ethylphenoxy)ethyl)-4,7-diazaspiro[2.5]octan-4-yl)acetamide]: the “Y (AR degradation efficiency, % of DMSO control)” value is reported as “* (0<Y<=25%)” and the DC50 was under 100 nM.

On to `CCc1cc(N2C(=S)N(c3cnc(C#N)c(C(F)(F)F)c3)C(=O)C2(C)C)ccc1OCCN1CCN(CC(=O)Nc2cc(Cl)cc(NC3CCC(=O)NC3=O)c2)C2(CC2)C1` (stereo not shown) [Example 102, N-(3-chloro-5-(2,6-dioxopiperidin-3-ylamino)phenyl)-2-(7-(2-(4-(3-(6-cyano-5-(trifluoromethyl)pyridin-3-yl)-5,5-dimethyl-4-oxo-2-thioxoimidazolidin-1-yl)-2-ethylphenoxy)ethyl)-4,7-diazaspiro[2.5]octan-4-yl)acetamide], for which the “Y (AR degradation efficiency, % of DMSO control)” value is reported as “* (0<Y<=25%)” and the DC50 is under 100 nM.

For the origin of these results see US12404241B2 (Celgene Corporation, priority 2018, dated 2025).
